What was measured:
Format in all cases: functional
[1] = test system: KM12; experiment: Cytotoxicity against Homo sapiens (human) KM12 cells assessed as growth inhibition at 10 uM after 48 hr by coulter counter analysis; conditions: KM12, 48 h, read-out: GI
[2] = test system: EKVX; experiment: Cytotoxicity against Homo sapiens (human) EKVX cells assessed as growth inhibition at 10 uM after 48 hr by coulter counter analysis; conditions: read-out: GI
[3] = test system: Malme-3M; experiment: Cytotoxicity against Homo sapiens (human) MALME-3M cells assessed as growth inhibition at 10 uM after 48 hr by coulter counter analysis; conditions: read-out: GI
[4] = test system: RXF 393; experiment: Cytotoxicity against Homo sapiens (human) RXF393 cells assessed as growth inhibition at 10 uM after 48 hr by coulter counter analysis; conditions: RXF 393, 48 h, read-out: GI
[5] = test system: SN12C; experiment: Cytotoxicity against Homo sapiens (human) SN12C cells assessed as growth inhibition at 10 uM after 48 hr by coulter counter analysis; conditions: read-out: GI
[6] = test system: NCI-H322M; experiment: Cytotoxicity against Homo sapiens (human) NCI-H322M cells assessed as growth inhibition at 10 uM after 48 hr by coulter counter analysis; conditions: read-out: GI
[7] = test system: BT-549; experiment: Cytotoxicity against Homo sapiens (human) BT549 cells assessed as growth inhibition at 10 uM after 48 hr by coulter counter analysis; conditions: BT-549, 48 h, read-out: GI
[8] = test system: SW-620; experiment: Cytotoxicity against Homo sapiens (human) SW620 cells assessed as growth inhibition at 10 uM after 48 hr by coulter counter analysis; conditions: SW-620, 48 h, read-out: GI
[9] = test system: SNB-19; experiment: Cytotoxicity against Homo sapiens (human) SNB19 cells assessed as growth inhibition at 10 uM after 48 hr by coulter counter analysis; conditions: SNB-19, 48 h, read-out: GI
[10] = test system: PC-3; experiment: Cytotoxicity against Homo sapiens (human) PC3 cells assessed as growth inhibition at 10 uM after 48 hr by coulter counter analysis; conditions: PC-3, 48 h, read-out: GI
[11] = test system: UACC-62; experiment: Cytotoxicity against Homo sapiens (human) UACC62 cells assessed as growth inhibition at 10 uM after 48 hr by coulter counter analysis; conditions: UACC-62, 48 h, read-out: GI
[12] = test system: MDA-MB-231; experiment: Cytotoxicity against Homo sapiens (human) MDA-MB-231 cells assessed as growth inhibition at 10 uM after 48 hr by coulter counter analysis; conditions: MDA-MB-231, 48 h, read-out: GI
[13] = test system: OVCAR-5; experiment: Cytotoxicity against Homo sapiens (human) OVCAR5 cells assessed as growth inhibition at 10 uM after 48 hr by coulter counter analysis; conditions: OVCAR-5, 48 h, read-out: GI
[14] = test system: MDA-MB-468; experiment: Cytotoxicity against Homo sapiens (human) MDA-MB-468 cells assessed as growth inhibition at 10 uM after 48 hr by coulter counter analysis; conditions: MDA-MB-468, 48 h, read-out: GI
[15] = test system: U-251; experiment: Cytotoxicity against Homo sapiens (human) U251 cells assessed as growth inhibition at 10 uM after 48 hr by coulter counter analysis; conditions: U-251, 48 h, read-out: GI
[16] = test system: SK-MEL-28; experiment: Cytotoxicity against Homo sapiens (human) SK-MEL-28 cells assessed as growth inhibition at 10 uM after 48 hr by coulter counter analysis; conditions: SK-MEL-28, 48 h, read-out: GI
[17] = test system: TK-10; experiment: Cytotoxicity against Homo sapiens (human) TK10 cells assessed as growth inhibition at 10 uM after 48 hr by coulter counter analysis; conditions: TK-10, 48 h, read-out: GI
[18] = test system: HOP-62; experiment: Cytotoxicity against Homo sapiens (human) HOP62 cells assessed as growth inhibition at 10 uM after 48 hr by coulter counter analysis; conditions: HOP-62, 48 h, read-out: GI
[19] = test system: HCT-15; experiment: Cytotoxicity against Homo sapiens (human) HCT15 cells assessed as growth inhibition at 10 uM after 48 hr by coulter counter analysis; conditions: HCT-15, 48 h, read-out: GI
[20] = test system: A498; experiment: Cytotoxicity against Homo sapiens (human) A498 cells assessed as growth inhibition at 10 uM after 48 hr by coulter counter analysis; conditions: A498, 48 h, read-out: GI
[21] = test system: SK-MEL-5; experiment: Cytotoxicity against Homo sapiens (human) SK-MEL-5 cells assessed as growth inhibition at 10 uM after 48 hr by coulter counter analysis; conditions: SK-MEL-5, 48 h, read-out: GI
[22] = test system: HCC 2998; experiment: Cytotoxicity against Homo sapiens (human) HCC2998 cells assessed as growth inhibition at 10 uM after 48 hr by coulter counter analysis; conditions: HCC 2998, 48 h, read-out: GI
[23] = test system: MCF7; experiment: Cytotoxicity against Homo sapiens (human) MCF7 cells assessed as growth inhibition at 10 uM after 48 hr by coulter counter analysis; conditions: MCF7, 48 h, read-out: GI
[24] = test system: COLO 205; experiment: Cytotoxicity against Homo sapiens (human) COLO205 cells assessed as growth inhibition at 10 uM after 48 hr by coulter counter analysis; conditions: COLO 205, 48 h, read-out: GI
[25] = test system: OVCAR-8; experiment: Cytotoxicity against Homo sapiens (human) OVCAR8 cells assessed as growth inhibition at 10 uM after 48 hr by coulter counter analysis; conditions: OVCAR-8, 48 h, read-out: GI
[26] = test system: HT-29; experiment: Cytotoxicity against Homo sapiens (human) HT-29 cells assessed as growth inhibition at 10 uM after 48 hr by coulter counter analysis; conditions: HT-29, 48 h, read-out: GI
[27] = test system: ACHN; experiment: Cytotoxicity against Homo sapiens (human) ACHN cells assessed as growth inhibition at 10 uM after 48 hr by coulter counter analysis; conditions: read-out: GI
[28] = test system: A549; experiment: Cytotoxicity against Homo sapiens (human) A549 cells assessed as growth inhibition at 10 uM after 48 hr by coulter counter analysis; conditions: A549, 48 h, read-out: GI
[29] = Cytotoxicity against Homo sapiens (human) NCI-ADR-RES cells assessed as growth inhibition at 10 uM after 48 hr by coulter counter analysis; conditions: read-out: GI
[30] = test system: UO-31; experiment: Cytotoxicity against Homo sapiens (human) UO31 cells assessed as growth inhibition at 10 uM after 48 hr by coulter counter analysis; conditions: UO-31, 48 h, read-out: GI
[31] = test system: SNB-75; experiment: Cytotoxicity against Homo sapiens (human) SNB75 cells assessed as growth inhibition at 10 uM after 48 hr by coulter counter analysis; conditions: SNB-75, 48 h, read-out: GI
[32] = test system: SF-268; experiment: Cytotoxicity against Homo sapiens (human) SF268 cells assessed as growth inhibition at 10 uM after 48 hr by coulter counter analysis; conditions: SF-268, 48 h, read-out: GI
[33] = test system: MDA-MB-435; experiment: Cytotoxicity against Homo sapiens (human) MDA-MB-435 cells assessed as growth inhibition at 10 uM after 48 hr by coulter counter analysis; conditions: MDA-MB-435, 48 h, read-out: GI
[34] = test system: OVCAR-4; experiment: Cytotoxicity against Homo sapiens (human) OVCAR4 cells assessed as growth inhibition at 10 uM after 48 hr by coulter counter analysis; conditions: OVCAR-4, 48 h, read-out: GI

Compound	inhibition of growth at 10 µM [1] [%]	inhibition of growth at 10 µM [2] [%]	inhibition of growth at 10 µM [3] [%]	inhibition of growth at 10 µM [4] [%]	inhibition of growth at 10 µM [5] [%]	inhibition of growth at 10 µM [6] [%]	inhibition of growth at 10 µM [7] [%]	inhibition of growth at 10 µM [8] [%]	inhibition of growth at 10 µM [9] [%]	inhibition of growth at 10 µM [10] [%]	inhibition of growth at 10 µM [11] [%]	inhibition of growth at 10 µM [12] [%]	inhibition of growth at 10 µM [13] [%]	inhibition of growth at 10 µM [14] [%]	inhibition of growth at 10 µM [15] [%]	inhibition of growth at 10 µM [16] [%]	inhibition of growth at 10 µM [17] [%]	inhibition of growth at 10 µM [18] [%]	inhibition of growth at 10 µM [19] [%]	inhibition of growth at 10 µM [20] [%]	other results
CCn1c(S)nnc1CSc1nc2ccccc2c(=O)n1CCc1ccccc1	< 10	15	< 10	< 10	< 10	27	28	< 10	< 10	17	15	18	< 10	15	< 10	< 10	< 10	22	12	< 10	inhibition of growth at 10 µM [21]: 18%; inhibition of growth at 10 µM [22]: < 10%; inhibition of growth at 10 µM [23]: 16%; inhibition of growth at 10 µM [24]: < 10%; inhibition of growth at 10 µM [25]: 11%; inhibition of growth at 10 µM [26]: < 10%; inhibition of growth at 10 µM [27]: 15%; inhibition of growth at 10 µM [28]: 16%; inhibition of growth at 10 µM [29]: 27%; inhibition of growth at 10 µM [30]: 24%; inhibition of growth at 10 µM [31]: < 10%; inhibition of growth at 10 µM [32]: < 10%; inhibition of growth at 10 µM [33]: 16%; inhibition of growth at 10 µM [34]: 15%
O=c1c2ccccc2[nH]c(=S)n1CCc1ccccc1	< 10	18	< 10	< 10	< 10	< 10	< 10	< 10	< 10	13	20	< 10	< 10	22	< 10	< 10	< 10	26	< 10	46	inhibition of growth at 10 µM [21]: 13%; inhibition of growth at 10 µM [22]: < 10%; inhibition of growth at 10 µM [23]: 31%; inhibition of growth at 10 µM [24]: < 10%; inhibition of growth at 10 µM [25]: < 10%; inhibition of growth at 10 µM [26]: < 10%; inhibition of growth at 10 µM [27]: < 10%; inhibition of growth at 10 µM [28]: < 10%; inhibition of growth at 10 µM [29]: < 10%; inhibition of growth at 10 µM [30]: 33%; inhibition of growth at 10 µM [31]: < 10%; inhibition of growth at 10 µM [32]: < 10%; inhibition of growth at 10 µM [33]: < 10%; inhibition of growth at 10 µM [34]: < 10%

Source: ChEMBL document CHEMBL3044826, “Design, synthesis and biological evaluation of some novel substituted 2-mercapto-3-phenethylquinazolines as antitumor agents” (2013)
